Patent publication US20240082296A1, “TREATMENT OF MUSCLE ATROPHY USING DEXTRAN SULFATE” (TX MEDIC AB, priority 2020, published 2024)

What was measured:
Format in all cases: in vivo, human
patients with ALS [1] = assay: Phase IIa trial in ALS patients: serum myoglobin and creatine kinase (Example 2)
Description: (§1) A clinical trial in the form of a Phase IIa, single-center, open label, single-arm study where the safety, tolerability and possible efficacy of subcutaneously administered dextran sulfate was evaluated in patients with ALS of intermediate progression rate. The clinical trial was conducted at the Sahlgrenska University Hospital, Gothenburg, Sweden and was overseen and approved by the Ethics Committee of the University of Gothenburg and by the Swedish Medical Products Agency.
(§2) Dextran sulfate (Tikomed AB, Viken, Sweden, WO 2016/076780) was administered at 1 mg/kg by […] subcutaneous injection once a week for five weeks to 13 human patients suffering from ALS.
(§3) Blood samples were drawn at defined study intervals by a venous catheter into vacutainer tubes. Laboratory analyses of blood plasma were performed immediately after collection by the Clinical Chemistry Laboratory at the Sahlgrenska University Hospital.

patients with ALS [2] = assay: clinical observation of muscle function (ALSFRS-R) in ALS patients (Example 2); conditions: during the five-week treatment period; 1 mg/kg s.c. weekly
Description: as §1, §2
ALSFRS-R was assessed pre-treatment and weekly thereafter for the 5 treatment weeks and for the visits at the follow-up period.
The biochemical evidence of reduced muscle degeneration supports the clinical observations of improved muscle function. For example, in the ALSFRS-R, functions mediated by cervical, trunk, lumbosacral, and respiratory muscles are each assessed by 3 items and scores in these categories show close agreement with objective measures of muscle strength.

[3] = system: hepatocyte growth factor (HGF); assay: circulating HGF after dextran sulfate injection in ALS patients (Example 2); conditions: peak at 2.5 hours after injection; before 820±581; p<0.001
Description: as §1, §2, §3
This indicates the potential for direct myogenic, as well as indirect neurotrophic, HGF-mediated effects on muscle atrophy after dextran sulfate administration.

ALS patients = assay: serum metabolites by HPLC pre- and post-treatment in ALS patients (Example 3)
Description: The objective of this Example was to evaluate the effect of repeated dextran sulfate administration on the concentrations of serum metabolites in serum samples from a cohort of Swedish ALS patients who had participated in the trial entitled ‘A single-centre, open single-arm study where the safety, tolerability and efficacy of subcutaneously administered ILB® will be evaluated in patients with Amyotrophic Lateral Sclerosis’. Using a longitudinal design, this study aimed to determine the changes of selected serum metabolites in each ALS patient before and after weekly dextran sulfate treatment. Changes in the measured metabolites indicate the biochemical response of the patient to dextran sulfate that is underpinning potential disease modification and the mechanisms of action of the drug in this patient population.
After an initial screening visit, patients had five weekly dosing of a single dextran sulfate (ILB®, Tikomed AB, Viken, Sweden, WO 2016/076780) injection of 1.0 mg/kg body weight in saline into the subcutaneous fat of the lower abdomen.
Peripheral venous blood samples were been collected from the patients after at least 15 minutes of complete rest, using the standard tourniquet procedure, from the antecubital vein into a single VACUETTE® polypropylene tube containing serum separator and clot activator (Greiner-Bio One GmbH, Kremsmunster, Austria). After 30 minutes at room temperature, blood withdrawals were centrifuged at 1,890×g for 10 min and the resulting serum samples were stored at −20° C. until analysis.
After defrost, an aliquot of 500 μl of each serum sample was supplemented with 1 ml of HPLC-grade acetonitrile, vortexed for 60 seconds, centrifuged at the maximum speed in a top-bench centrifuge to precipitate proteins. Supernatants were washed with large volumes of HPLC-grade chloroform to remove organic solvent, centrifuged and the upper aqueous phases were transferred in different tubes, clearly labeled to identify the sample and stored at −80° C. until analyzed to determine different water-soluble compounds.
A second aliquot of about 300 μl of each serum sample was light-protected and then processed to extract fat-soluble antioxidants using a method described in detail elsewhere (Lazzarino et al., Single-step preparation of selected biological fluids for the high performance liquid chromatographic analysis of fat-soluble vitamins and antioxidants. J Chromatogr A. 2017; 1527: 43-52.). Briefly, samples were supplemented with 1 ml of HPLC-grade acetonitrile, vigorously vortexed for 60 s and incubated at 37° C. for 1 h in a water bath under agitation, to allow the full extraction of lipid soluble compounds. Samples were then centrifuged at 20,690×g for 15 min at 4 C to precipitate proteins and the clear supernatants were saved at −80° C. until the HPLC analysis of fat-soluble vitamins and antioxidants.
In deproteinized serum samples, the following water-soluble compounds were separated and quantified by HPLC, according to methods described elsewhere (Tavazzi et al., Simultaneous high performance liquid chromatographic separation of purines, pyrimidines, N-acetylated amino acids, and dicarboxylic acids for the chemical diagnosis of inborn errors of metabolism. Clin Biochem. 2005; 38: 997-1008; Romitelli et al., Comparison of nitrite/nitrate concentration in human plasma and serum samples measured by the enzymatic batch Griess assay, ion-pairing HPLC and ion-trap GC-MS: The importance of a correct removal of proteins in the Griess assay. J Chromatogr B Analyt Technol Biomed Life Sci. 2007; 851: 257-267; Amorini et al., Metabolic profile of amniotic fluid as a biochemical tool to screen for inborn errors of metabolism and fetal anomalies. Mol Cell Biochem. 2012; 359: 205-216): hypoxhantine, xanthine, uric acid, malondialdehyde (MDA), nitrite, nitrate, N-acetylaspartate (NAA), citrulline (CITR), alanine (ALA), and ornithine (ORN). […]

[4] = post- vs pre-treatment, five weekly 1.0 mg/kg s.c.

dextran sulfate
reduction in serum creatine kinase levels (patients with ALS [1]; after 4 weeks): 13.3% | reduction in serum myoglobin levels (patients with ALS [1]; after 4 weeks vs Day 1): 30% | serum myoglobin levels (patients with ALS [1]; after 4 weeks, 1 mg/kg s.c. once a week, Day 1: 133.92±126.28, p=0.021): 103.69 ± 72.16 µg/L | serum creatine kinase levels (patients with ALS [1]; after 4 weeks, 1 mg/kg s.c. once a week, before 7.15±5.74, p<0.05): 6.2±5.08 μkat/L | severe bulbar paresis in two patients (patients with ALS [2]): almost complete resolution | circulating HGF, peak [3]: 37.9 ± 14.2 ng/mL | serum CITR (ALS patients; [4]): ameliorated | serum MDA (ALS patients; [4]): decreased | serum NAA (ALS patients; [4]): Significantly lower | serum ORN/CITR ratio (ALS patients; [4]): ameliorated | serum nitrate (ALS patients; [4]): decreased | serum nitrite+nitrate (ALS patients; [4]): decreased | serum sum of oxypurines (hypoxanthine+xanthine+uric acid) (ALS patients; [4]): decreased | serum uric acid (ALS patients; [4]): decreased | serum α-tocopherol (ALS patients; [4]): ameliorated | serum γ-tocopherol (ALS patients; [4]): ameliorated | circulating values of ALA (ALS patients; post-treatment, equal to controls, significantly lower than pre-treatment): normalized
